Assay results as given in patent publication US11913952B2, “Methods for detecting peptide/MHC/TCR binding” (Prognosys Biosciences, Inc., priority 2013, dated 2024).
Where two headings read alike, the source gives them in different places.

Assays:
HLA-DR2 = HLA-DR2 (Homo sapiens, UniProt P01903+P01911); details: cited from earlier work
HLA-DR1 [1] = molecular target: T1, HLA-DR1 (Homo sapiens, UniProt P01903+P01911, A100R/D57E/F55L/F60I/F76Y/I96L/L162R/M171V/P40L/Q125E/R42F/V115G/Y59C); details: cited from earlier work; for known binding of peptide to HLA-DR1: Sidney et al., 2002
HLA-DRB1*01:01 = HLA-DRB1*01:01 (Homo sapiens, UniProt P01903+P01911, A100R/D57E/F55L/F60I/F76Y/I96L/L162R/M171V/P40L/Q125E/R42F/V115G/Y59C); assay: Peptide-MHC binding assay: conjugate incubated with recombinant MHC, captured with anti-HLA-DR antibody (L243) beads, qPCR
HLA-DR1 [2] = molecular target: T1, HLA-DR1; assay type: binding; parameters: biotin (biotinylated)
HLA-DR3 [3] = test system: HLA-DR3
HLA-DR3 [4] = details: cited from earlier work; for known binding of peptide to HLA-DR3: Sidney et al., 2002

Question: With “MBP(85-99): peptide of human myelin basic protein, residues 85-99 (PGSRPHLIRLFSRDA; UniProt P02686 85-99, looked up, fragment)” as the substance, how does the “affinity of peptide for purified DR2” value (HLA-DR2) read?
Answer: high affinity

Question: With “MBP(148-162): peptide of human myelin basic protein, residues 148-162 (YLATASTMDHARHGF; UniProt P02686 148-162, looked up, fragment)” as the substance, how does the “affinity of peptide for purified DR2” value (HLA-DR2) read?
Answer: lower but significant

Question: Which “known binding of peptide to HLA-DR1” value (HLA-DR1 [1]) does the source give for YKTIAFDEEARR here?
Answer: without cross-binding

Question: And the “known binding of peptide to HLA-DRB1*01:01” value (HLA-DR1 [1])?
Answer: not bind

Question: What about the “enrichment in the DR1 condition compared to beads only” value (HLA-DRB1*01:01) of the same substance?
Answer: no such enrichment

Question: And the “enrichment of signal in the DR1 condition compared to beads only” value (DR1)?
Answer: ~1000 fold

Question: What about the “binding of peptide-cDNA conjugate to MHC molecule” value (HLA-DR1 [2]; biotinylated HLA-DR1, overnight incubation, gel electrophoresis and qPCR readouts) of the same substance?
Answer: not to the other HLA-DR family member

Question: What about the “binding of peptide-cDNA conjugate to MHC molecule” value (HLA-DR3 [3]) of the same substance?
Answer: bound to the expected MHC molecule

Question: And the “known binding of peptide to HLA-DR3” value (HLA-DR3 [4])?
Answer: bind

Question: What about the “known binding of peptide to HLA-DRB1*03:01” value (HLA-DR3 [4]) of the same substance?
Answer: bind

Question: Which results are given for YPKAVKQNTLKLAT [YP (Y4A)]?
Answer: known affinity of peptide for the HLA-DR1 molecule (HLA-DR1 [1]): low; profile of binding to HLA-DR1 (HLA-DR1 [2]; conjugates incubated and detected as a mixture (3-plex), qPCR): low; profile of binding to HLA-DR1 (HLA-DR1 [2]; conjugates present individually (1-plex), qPCR): low

Question: What does the source list for YPKYVKQNTLKLAT?
Answer: known binding of peptide to HLA-DR1 (HLA-DR1 [1]): bind; known affinity of peptide for the HLA-DR1 molecule (HLA-DR1 [1]): high; known binding of peptide to HLA-DRB1*01:01 (HLA-DR1 [1]): bind; enrichment in the DR1 condition compared to beads only (HLA-DRB1*01:01): ~1000 fold; enrichment of conjugate binding to DR1 over beads (HLA-DRB1*01:01): ~100 fold; binding of peptide-cDNA conjugate to MHC molecule (HLA-DR1 [2]): bound to the expected MHC molecule; profile of binding to HLA-DR1 (HLA-DR1 [2]): high; binding of peptide-cDNA conjugate to MHC molecule (HLA-DR3 [3]): not to the other HLA-DR family member; known binding of peptide to HLA-DR3 (HLA-DR3 [4]): without cross-binding
